Source: patent US7893061B2, “Alkyne-substituted pyridone compounds and methods of use” (Amgen Inc., priority 2006, dated 2011)

biological target: T1, c-KIT kinase enzyme (Homo sapiens, UniProt P10721); assay: cKIT Homogeneous Time Resolved Fluorescent (HTRF) kinase assay; type: biochemical; details: inhibition of the c-KIT kinase enzyme
T1 construct: cKIT (6.25 μM) (catalytic domain, N-terminal GST tagged, unphosphorylated)
Experimental: cKIT-Homogeneous Time Resolved Fluorescent (HTRF) Kinase Assay:
The purpose of this assay is to measure the inhibition of cKIT enzyme activity (autophosphorylation and phosphorylation of substrate) by small molecule test compounds. The cKIT HTRF assay begins with cKIT-catalyzed phosphorylation of biotinylated peptide Her-2 (N-GGMEDIYFEFMGGKKK-C) (SEQ ID 001) in the presence of ATP. The cKIT enzyme reaction is comprised of 1 μL of compound in 100% DMSO, 15 μL of 2× substrate mix (50 μM ATP and 2 μM biotinylated Her-2) and 15 μL of 2× cKIT (6.25 μM) (catalytic domain, N-terminal GST tagged, unphosphorylated) in 4 mM DTT all diluted in enzyme buffer (25 mM HEPES pH 7.5, 12.5 mM NaCl, 50 mM MgCl, 0.05% BSA). The reaction incubates for 90 min at RT. 160 Microliters of detection mixture containing 0.47 μg/mL steptavidin allophycocyanin and 29.7 pM europylatedanti-phosphotyrosine Ab (PT66, Perkin Elmer) in HTRF buffer (100 mM Hepes pH 7.5, 100 mM NaCl, 0.1% BSA, 0.05% Tween 20) is then added to stop the reaction, by diluting out the enzyme as well as to enable quantitation of phosphorylated Her-2. After 3 h at RT, the detection reaction is read in a Packard Discovery™ (model BD1000) plate reader. The wells are excited with coherent […] light and the ratio of delayed ([…] post excitation) emissions at […] (native europium fluorescence) and 665 nm (europium fluorescence transferred to allophycocyanin—an index of substrate phosphorylation) is determined. The proportion of substrate phosphorylated in the kinase reaction in the presence of compound compared with that phosphorylated in the presence of DMSO vehicle alone (HI control) is calculated using the formula:
% control (POC)=(cpd−average LO)/(average HI−average LO)*100. Data (consisting of POC and inhibitor concentration in μM) is fitted to a 4-parameter equation (y=A+((B−A)/(1+((x/C)^D))), where A is the minimum y (POC) value, B is the maximum y (POC), C is the x (compound concentration) at the point of inflection and D is the slope factor) using a Levenburg-Marquardt non-linear regression algorithm.

T1 sequence (P10721 589-937 limits assumed): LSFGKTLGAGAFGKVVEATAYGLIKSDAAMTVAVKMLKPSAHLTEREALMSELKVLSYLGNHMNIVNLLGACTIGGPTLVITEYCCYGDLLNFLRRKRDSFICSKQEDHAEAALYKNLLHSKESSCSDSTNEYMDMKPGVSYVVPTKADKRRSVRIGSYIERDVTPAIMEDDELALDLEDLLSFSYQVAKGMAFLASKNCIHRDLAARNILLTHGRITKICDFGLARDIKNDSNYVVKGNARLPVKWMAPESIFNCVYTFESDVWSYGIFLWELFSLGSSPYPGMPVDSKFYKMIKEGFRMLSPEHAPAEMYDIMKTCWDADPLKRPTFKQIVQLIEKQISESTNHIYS

Row | Compound | IC50 [nM]
1 | Cc1ccn(-c2cccc(C(F)(F)F)c2)c(=O)c1C#Cc1cnc(N)nc1 [Example 4, 3-((2-amino-5-pyrimidinyl)ethynyl)-4-methyl-1-(3-(trifluoromethyl)phenyl)-2(1H)-pyridinone] | ≤ 100
2 | Cc1ccn(-c2ccc3c(c2)NCC3(C)C)c(=O)c1C#Cc1cnc(N)nc1 [Example 6, 3-((2-amino-5-pyrimidinyl)ethynyl)-1-(3,3-dimethyl-2,3-dihydro-1H-indol-6-yl)-4-methyl-2(1H)-pyridinone] | ≤ 10
3 | Cc1ccc(-n2ccc(C)c(C#Cc3cnc(N)nc3)c2=O)cc1C [Example 7, 3-((2-amino-5-pyrimidinyl)ethynyl)-1-(3,4-dimethylphenyl)-4-methyl-2(1H)-pyridinone] | ≤ 10
4 | CC(=O)N1CC(C)(C)c2ccc(-n3ccc(C)c(C#Cc4cnc(N)nc4)c3=O)cc21 [Example 8, 1-(1-acetyl-3,3-dimethyl-2,3-dihydro-1H-indol-6-yl)-3-((2-amino-5-pyrimidinyl)ethynyl)-4-methyl-2(1H)-pyridinone] | ≤ 20
5 | Cc1ccn(-c2ccc3c(c2)CCO3)c(=O)c1C#Cc1cnc(N)nc1 [Example 9, 3-((2-amino-5-pyrimidinyl)ethynyl)-1-(2,3-dihydro-1-benzofuran-5-yl)-4-methyl-2(1H)-pyridinone] | ≤ 100
6 | Cc1ccn(-c2cccc(OC(F)(F)F)c2)c(=O)c1C#Cc1cnc(N)nc1 [Example 10, 3-((2-amino-5-pyrimidinyl)ethynyl)-4-methyl-1-(3-((trifluoromethyl)oxy)phenyl)-2(1H)-pyridinone] | ≤ 100
